“Also recorded” adds a separate entry of the source. Peptide text beside a SMILES is read from it. * marks the point of attachment. Cbz = O=C(OCc1ccccc1)*; CH2F = FC*
Columns and labels:
Assay type in all cases: in vivo
[1] = tested on: CC10-rtTA-IFN-γ transgene (+) mice; experiment: IFN-γ-induced lung cell apoptosis (TUNEL) in transgenic mice; details: for IFN-γ-induced apoptosis (TUNEL): transgene (+) mice on dox, 14150 10 mg/kg/day by gavage, CA074 10 mg/Kg/day, leupeptin 15 mg/kg I.P., vs vehicle
Description: (§1) CC10-rtTA-IFN-γ mice that had been generated in our laboratory and bred for at least 10 generations onto a Balb/c background were used in these studies. These are dual transgene positive animals in which the reverse tetracycline transactivator (rtTA) drives the expression of the murine IFN-γ gene in a lung-specific and externally regulatable fashion. The transgene in these mice is activated by adding doxycycline (dox) to the animal's drinking water. These mice were maintained as dual transgene (+) heterozygotes (refered to as transgene (+) hereafter).
(§2) CC 10-rtTA-IFN-γ mice and littermate controls were maintained on normal water until they were 4-6 weeks old.
End labeling of exposed 3′-OH ends of DNA fragments in paraffin embedded tissue was undertaken with the TUNEL in situ cell death detection kit AP (Roche Diagnostics, Calif., USA) using the instructions provided by the manufacturer. After staining, 20 fields of alveoli were randomly chosen and 2000 nuclei were counted. The labeled cells were expressed as percentage of total nuclei.

[2] = tested on: CC10-rtTA-IFN-γ transgene (+) mice; experiment: IFN-γ-induced emphysema (lung volume, chord length, histology, compliance) in transgenic mice; details: transgene (+) mice on dox, Z-VAD-fmk 3 μg/kg/day I.P., 14150 10 mg/kg/day by gavage, CA074 10 mg/Kg/day, leupeptin 15 mg/kg I.P., vs vehicle
Description: as §1, §2
(§3) Animals were sacrificed via cervical dislocation, a median sternotomy was performed, and right heart perfusion was accomplished with calcium- and magnesium-free PBS to clear the pulmonary intravascular space. The lungs were then fixed to pressure (25 cm) with neutral buffered 10% formalin, fixed overnight in 10% formalin, embedded in paraffin, sectioned at 5 μm and stained. Hematoxylin and eosin (H&E) stains were performed in the Research Histology Laboratory of the Department of Pathology at Yale University School of Medicine.
In brief, the trachea was cannulated, the lungs were degassed and the lungs and heart were removed en bloc and inflated with PBS at 25 cm of pressure. The size of the lung was evaluated via volume displacement. Compliance was calculated as the change in volume divided by the change in pressure.

[3] = tested on: CC10-rtTA-IFN-γ transgene (+) mice; experiment: IFN-γ-induced BAL and tissue inflammation; details: transgene (+) mice on dox 2 weeks
Protocol: Mice were euthanized, the trachea was isolated by blunt dissection, and tubing was secured in the airway. Two volumes of 1 mL of PBS with 0.1% BSA were then instilled and gently aspirated and pooled. Each BAL fluid sample was centrifuged, and the supernatants were stored in −70° C. until used The levels of IFN-γ were determined using a commercial ELISA (R&D Systems Inc., Minneapolis, Minn., USA) as per the manufacturer's instructions.
as §3

[4] = tested on: CC10-rtTA-IFN-γ transgene (+) mice; experiment: Lung mRNA encoding cathepsins and MMPs (RT-PCR, real-time RT-PCR); details: transgene (+) mice on dox 2 weeks

| Structure (SMILES) | IFN-γ-induced apoptosis (TUNEL) [1] | IFN-γ-induced emphysema (lung volume, chord length, alveolar histology, compliance) [2] | decrease of the levels of IFN-γ-induced apoptosis ([1]; transgene (+) mice on dox 2 weeks, Z-VAD-fmk 3 μg/kg/day I.P. vs vehicle) [%] | IFN-γ-induced emphysema (lung volume, chord length, alveolar histology, compliance) ([2]; listed as Z-VAD-fink) | IFN-γ-induced BAL total cell, neutrophil, lymphocyte and macrophage alterations and tissue inflammation [3] | IFN-γ-induced increase in mRNA encoding cathepsin B, cathepsin S and MMPs-2 and -14 [4] | levels of mRNA encoding cathepsin H and MMPs-9 and -12 [4] | MMP-9 mRNA induction [4] |
| --- | --- | --- | --- | --- | --- | --- | --- | --- |
| CC[C@H](NC(=O)[C@H](CS(=O)(=O)CC(C)C)NC(=O)N1CCOCC1)C(=O)c1nc2ccccc2o1 [compound 14150] | significant decreases; also recorded: significantly inhibited | significant decreases; also recorded: significantly inhibited | – | – | – | – | – | – |
| CCCNC(=O)[C@H]1O[C@@H]1C(=O)N[C@H](C(=O)N1CCC[C@H]1C(=O)O)[C@@H](C)CC (relative stereo) [CA074, N-(L-3-trans-propylcarbamoyl-oxirane-2-carbonyl)-L-isoleucyl-L-proline] | significant decreases | significant decreases | – | – | – | – | – | – |
| COC(=O)C[C@H](NC(=O)[C@H](C)NC(=O)[C@@H](NC(=O)OCc1ccccc1)C(C)C)C(=O)CF [Z-VAD-fmk] (Cbz-Val-Ala-Asp(OMe)-CH2F) | – | decreased the emphysema generating effects of IFN-γ | ≥ 85 | only partially abrogated | markedly ameliorated | markedly ameliorated | not similarly altered | – |
| CC(=O)N[C@@H](CC(C)C)C(=O)N[C@@H](CC(C)C)C(=O)N[C@H](C=O)CCCNC(=N)N [leupeptin] | – | – | – | – | – | decreased | – | induced in am leupeptin-dependent fashion |

— US20060030562A1, “Use of an inhibitor of cathepsin-S-or-B to treat or prevent chronic obstructive pulmonary disease” (AVENTIS PHARMACEUTICALS INC., priority 2003, published 2006)
